Inhibition data for 1 compound are collected here from article PMC8120209, “Longitudinal evaluation of a novel BChE PET tracer as an early in vivo biomarker in the brain of a mouse model for Alzheimer disease” (Theranostics, 2021).

One experiment addresses T1, adrenergic receptor α1A (Homo sapiens, UniProt P35348).
T1 construct: gene ADRA1A
T1 sequence (P35348 1-466): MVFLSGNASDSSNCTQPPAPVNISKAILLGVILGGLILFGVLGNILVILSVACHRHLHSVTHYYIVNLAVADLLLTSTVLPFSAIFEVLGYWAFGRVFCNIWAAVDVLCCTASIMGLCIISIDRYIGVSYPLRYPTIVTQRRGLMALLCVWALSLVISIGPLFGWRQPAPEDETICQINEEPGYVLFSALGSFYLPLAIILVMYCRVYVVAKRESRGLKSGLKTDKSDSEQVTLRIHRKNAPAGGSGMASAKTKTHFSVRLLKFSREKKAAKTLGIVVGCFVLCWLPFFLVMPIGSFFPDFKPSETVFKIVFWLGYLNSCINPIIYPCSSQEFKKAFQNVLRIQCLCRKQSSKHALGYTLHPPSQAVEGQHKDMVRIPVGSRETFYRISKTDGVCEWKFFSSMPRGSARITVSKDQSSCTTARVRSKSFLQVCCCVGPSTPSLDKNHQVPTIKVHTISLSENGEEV
The experiment is described as follows: SafetyScreen44 panel (Eurofins), single concentration […]. To be noted: read-out: % inhibition at 10 μM.

Another experiment concerns the target T2, N muscle-type (h) (Homo sapiens, UniProt P02708).
T2 construct: gene CHRNA1
Put plainly: biochemical. On the set-up: Eurofins SafetyScreen44 radioligand displacement, inhibition of control specific binding. To be noted: read-out: % Inhibition of Control Specific Binding, Mean.

The target of the next experiment is T3, GR (h) (Homo sapiens, UniProt P04150).
T3 construct: gene NR3C1
Put plainly: biochemical. On the set-up: Eurofins SafetyScreen44 radioligand displacement, inhibition of control specific binding. To be noted: read-out: % Inhibition of Control Specific Binding, Mean.

A further experiment has as its target T4, D2L(h) (Homo sapiens, UniProt P14416).
T4 construct: gene DRD2; long isoform D2L
Put plainly: biochemical. On the set-up: Eurofins SafetyScreen44 radioligand displacement, inhibition of control specific binding. To be noted: read-out: % Inhibition of Control Specific Binding, Mean.

The target of the next experiment is T5, H1(h) (Homo sapiens, UniProt P35367).
T5 construct: gene HRH1
Put plainly: biochemical. On the set-up: Eurofins SafetyScreen44 radioligand displacement, inhibition of control specific binding. To be noted: read-out: % Inhibition of Control Specific Binding, Mean.

For a further experiment, the target named is T6, V1a(h) (Homo sapiens, UniProt P37288).
T6 construct: gene AVPR1A
T6 sequence (P37288 whole entry): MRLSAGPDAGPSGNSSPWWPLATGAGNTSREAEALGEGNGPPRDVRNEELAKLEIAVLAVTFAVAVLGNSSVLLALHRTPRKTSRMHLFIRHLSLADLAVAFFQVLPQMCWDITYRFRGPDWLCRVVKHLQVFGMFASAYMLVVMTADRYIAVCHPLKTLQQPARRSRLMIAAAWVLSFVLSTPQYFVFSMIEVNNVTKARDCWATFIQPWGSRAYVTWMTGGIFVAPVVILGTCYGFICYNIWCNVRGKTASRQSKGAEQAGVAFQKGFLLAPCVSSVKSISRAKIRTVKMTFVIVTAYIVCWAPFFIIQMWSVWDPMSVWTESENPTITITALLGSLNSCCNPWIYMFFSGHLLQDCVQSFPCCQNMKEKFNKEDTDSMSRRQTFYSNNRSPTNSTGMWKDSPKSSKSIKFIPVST
Put plainly: biochemical. The note with it: read-out: % Inhibition of Control Specific Binding, Mean. On the set-up: Eurofins SafetyScreen44 radioligand displacement, inhibition of control specific binding.

A further experiment has as its target T7, 5-HT2B(h) (Homo sapiens, UniProt P41595).
T7 construct: gene HTR2B
Put plainly: biochemical. On the set-up: Eurofins SafetyScreen44 radioligand displacement, inhibition of control specific binding. To be noted: read-out: % Inhibition of Control Specific Binding, Mean.

A further experiment concerns the target T8, 5-HT5a(h) (Homo sapiens, UniProt P47898).
T8 construct: gene HTR5A
The experiment is described as follows: biochemical. On the set-up: Eurofins SafetyScreen44 radioligand displacement, inhibition of control specific binding. To be noted: read-out: % Inhibition of Control Specific Binding, Mean.

In another experiment the target is T9, A2A(h) (Homo sapiens, UniProt P29274).
T9 construct: gene ADORA2A
Put plainly: biochemical. The note with it: read-out: % Inhibition of Control Specific Binding, Mean. On the set-up: Eurofins SafetyScreen44 radioligand displacement, inhibition of control specific binding.

Another experiment has as its target T10, CB1(h) (Homo sapiens, UniProt P21554).
T10 construct: gene CNR1
The experiment is described as follows: biochemical. On the set-up: Eurofins SafetyScreen44 radioligand displacement, inhibition of control specific binding. The note with it: read-out: % Inhibition of Control Specific Binding, Mean.

For the next experiment, the target named is T11, M1(h) (Homo sapiens, UniProt P11229).
T11 construct: gene CHRM1
T11 sequence (P11229 whole entry): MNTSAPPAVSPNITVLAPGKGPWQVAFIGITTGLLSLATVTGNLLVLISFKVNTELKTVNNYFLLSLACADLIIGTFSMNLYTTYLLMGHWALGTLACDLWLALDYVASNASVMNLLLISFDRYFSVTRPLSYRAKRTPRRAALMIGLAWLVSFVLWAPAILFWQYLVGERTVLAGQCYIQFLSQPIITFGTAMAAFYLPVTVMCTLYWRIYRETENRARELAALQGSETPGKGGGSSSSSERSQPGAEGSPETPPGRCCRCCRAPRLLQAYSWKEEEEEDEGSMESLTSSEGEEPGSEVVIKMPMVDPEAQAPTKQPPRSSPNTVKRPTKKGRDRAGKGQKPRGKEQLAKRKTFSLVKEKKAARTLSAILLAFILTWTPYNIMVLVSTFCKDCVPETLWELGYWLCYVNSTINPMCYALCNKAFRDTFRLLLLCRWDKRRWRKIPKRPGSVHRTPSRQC
The experiment is described as follows: biochemical. On the set-up: Eurofins SafetyScreen44 radioligand displacement, inhibition of control specific binding. The note with it: read-out: % Inhibition of Control Specific Binding, Mean.

In another experiment the target is T12, β2(h) (Homo sapiens, UniProt P07550).
T12 construct: gene ADRB2
The experiment is described as follows: biochemical. To be noted: read-out: % Inhibition of Control Specific Binding, Mean. On the set-up: Eurofins SafetyScreen44 radioligand displacement, inhibition of control specific binding.

The next experiment concerns the target T13, D2S(h) (Homo sapiens, UniProt P14416).
T13 construct: gene DRD2; short isoform D2S
The experiment is described as follows: biochemical. On the set-up: Eurofins SafetyScreen44 radioligand displacement, inhibition of control specific binding. To be noted: read-out: % Inhibition of Control Specific Binding, Mean.

For another experiment, the target named is T14, δ (DOP) (h) (Homo sapiens, UniProt P41143).
T14 construct: gene OPRD1
T14 sequence (P41143 whole entry): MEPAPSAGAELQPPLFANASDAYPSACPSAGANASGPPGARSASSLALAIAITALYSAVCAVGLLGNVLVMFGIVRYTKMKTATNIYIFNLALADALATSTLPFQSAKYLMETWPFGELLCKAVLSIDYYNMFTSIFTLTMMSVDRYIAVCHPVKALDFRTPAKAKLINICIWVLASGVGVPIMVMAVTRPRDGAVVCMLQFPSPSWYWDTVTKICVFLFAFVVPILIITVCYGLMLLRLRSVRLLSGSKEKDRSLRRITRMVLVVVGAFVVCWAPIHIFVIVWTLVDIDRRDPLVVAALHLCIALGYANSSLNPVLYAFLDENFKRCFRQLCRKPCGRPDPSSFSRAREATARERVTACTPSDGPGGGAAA
Put plainly: biochemical. On the set-up: Eurofins SafetyScreen44 radioligand displacement, inhibition of control specific binding. The note with it: read-out: % Inhibition of Control Specific Binding, Mean.

A further experiment concerns the target T15, H2(h) (Homo sapiens, UniProt P25021).
T15 construct: gene HRH2
The experiment is described as follows: biochemical. On the set-up: Eurofins SafetyScreen44 radioligand displacement, inhibition of control specific binding. The note with it: read-out: % Inhibition of Control Specific Binding, Mean.

In a further experiment the target is T16, M3(h) (Homo sapiens, UniProt P20309).
T16 construct: gene CHRM3
The experiment is described as follows: biochemical. On the set-up: Eurofins SafetyScreen44 radioligand displacement, inhibition of control specific binding. The note with it: read-out: % Inhibition of Control Specific Binding, Mean.

For a further experiment, the target named is T17, M5(h) (Homo sapiens, UniProt P08912).
T17 construct: gene CHRM5
T17 sequence (P08912 whole entry): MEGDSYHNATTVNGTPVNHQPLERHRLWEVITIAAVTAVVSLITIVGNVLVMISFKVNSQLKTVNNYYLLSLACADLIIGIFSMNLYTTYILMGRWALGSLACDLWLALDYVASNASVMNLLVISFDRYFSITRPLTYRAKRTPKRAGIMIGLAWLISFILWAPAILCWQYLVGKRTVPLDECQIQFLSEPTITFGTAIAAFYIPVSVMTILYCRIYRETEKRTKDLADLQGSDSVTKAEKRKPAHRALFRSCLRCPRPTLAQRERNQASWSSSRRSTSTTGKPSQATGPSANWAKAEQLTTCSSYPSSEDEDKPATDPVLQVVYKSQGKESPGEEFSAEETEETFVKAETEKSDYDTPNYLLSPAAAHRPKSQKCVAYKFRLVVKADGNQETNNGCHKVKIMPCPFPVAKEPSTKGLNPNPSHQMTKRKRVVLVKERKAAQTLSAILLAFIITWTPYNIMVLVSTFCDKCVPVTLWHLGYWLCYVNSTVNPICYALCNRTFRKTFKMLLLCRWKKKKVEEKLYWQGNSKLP
The experiment is described as follows: biochemical. On the set-up: Eurofins SafetyScreen44 radioligand displacement, inhibition of control specific binding. The note with it: read-out: % Inhibition of Control Specific Binding, Mean.

In the next experiment the target is T18, D3(h) (Homo sapiens, UniProt P35462).
T18 construct: gene DRD3
The experiment is described as follows: biochemical. On the set-up: Eurofins SafetyScreen44 radioligand displacement, inhibition of control specific binding. To be noted: read-out: % Inhibition of Control Specific Binding, Mean.

The next experiment concerns the target PDE3A (h) (Homo sapiens, UniProt Q14432). The experiment is described as follows: biochemical. On the set-up: Eurofins SafetyScreen44 enzyme assays, inhibition of control specific activity. The note with it: read-out: % Inhibition of Control Values, Mean.
Experiment [1] concerns the target T19, 5-HT1B (antagonist radioligand) (Rattus norvegicus, UniProt P28564).
T19 construct: gene Htr1b
Put plainly: biochemical. The note with it: read-out: % Inhibition of Control Specific Binding Mean.

The target in experiment [2] is T20, 5-HT1D (agonist radioligand) (Rattus norvegicus, UniProt P28565).
T20 construct: gene Htr1d
The experiment is described as follows: biochemical. To be noted: read-out: % Inhibition of Control Specific Binding Mean.

The target in experiment [3] is AR(h) (agonist radioligand) (Homo sapiens, UniProt P10275). Put plainly: biochemical. To be noted: read-out: % Inhibition of Control Specific Binding Mean.
Experiment [4] addresses T21, MAO-A (antagonist radioligand) (Rattus norvegicus, UniProt P21396).
T21 construct: gene Maoa
The experiment is described as follows: biochemical. To be noted: read-out: % Inhibition of Control Specific Binding Mean.

T10 sequence (P21554 whole entry): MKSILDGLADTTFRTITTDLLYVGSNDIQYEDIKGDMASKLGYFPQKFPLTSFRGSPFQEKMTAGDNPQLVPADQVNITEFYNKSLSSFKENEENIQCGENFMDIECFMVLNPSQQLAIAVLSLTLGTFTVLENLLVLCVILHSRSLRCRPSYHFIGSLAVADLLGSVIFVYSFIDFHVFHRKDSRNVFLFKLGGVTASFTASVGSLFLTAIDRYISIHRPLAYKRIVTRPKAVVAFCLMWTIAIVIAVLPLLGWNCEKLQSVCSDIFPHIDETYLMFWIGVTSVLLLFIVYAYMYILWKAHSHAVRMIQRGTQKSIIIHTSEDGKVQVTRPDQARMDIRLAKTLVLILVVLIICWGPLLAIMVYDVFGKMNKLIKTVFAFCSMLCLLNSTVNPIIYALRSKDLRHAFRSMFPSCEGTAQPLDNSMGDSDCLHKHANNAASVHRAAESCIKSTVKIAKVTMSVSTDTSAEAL
T8 sequence (P47898 whole entry): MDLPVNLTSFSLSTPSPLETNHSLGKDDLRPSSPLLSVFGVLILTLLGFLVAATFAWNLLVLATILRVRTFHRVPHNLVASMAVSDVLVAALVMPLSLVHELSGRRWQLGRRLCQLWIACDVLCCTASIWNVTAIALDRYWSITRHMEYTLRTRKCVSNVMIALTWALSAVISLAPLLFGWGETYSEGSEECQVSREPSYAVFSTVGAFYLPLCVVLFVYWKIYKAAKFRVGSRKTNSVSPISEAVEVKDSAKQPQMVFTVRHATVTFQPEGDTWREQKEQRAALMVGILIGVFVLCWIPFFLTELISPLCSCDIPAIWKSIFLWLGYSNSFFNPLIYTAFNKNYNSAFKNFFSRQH
T4 sequence (P14416 whole entry, canonical isoform): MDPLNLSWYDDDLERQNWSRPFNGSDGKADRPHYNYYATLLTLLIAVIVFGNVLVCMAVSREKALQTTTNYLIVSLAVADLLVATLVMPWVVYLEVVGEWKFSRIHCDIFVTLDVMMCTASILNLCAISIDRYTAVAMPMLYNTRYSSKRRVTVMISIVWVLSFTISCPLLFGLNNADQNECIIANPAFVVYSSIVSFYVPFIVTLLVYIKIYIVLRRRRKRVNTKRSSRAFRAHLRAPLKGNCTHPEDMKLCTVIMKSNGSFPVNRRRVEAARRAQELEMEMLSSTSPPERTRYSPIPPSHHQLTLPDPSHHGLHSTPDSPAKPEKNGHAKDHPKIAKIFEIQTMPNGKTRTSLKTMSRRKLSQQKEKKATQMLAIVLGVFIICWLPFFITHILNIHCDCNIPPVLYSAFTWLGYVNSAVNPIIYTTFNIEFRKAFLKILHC
T13 sequence (P14416 whole entry, canonical isoform): as above
T2 sequence (P02708 whole entry): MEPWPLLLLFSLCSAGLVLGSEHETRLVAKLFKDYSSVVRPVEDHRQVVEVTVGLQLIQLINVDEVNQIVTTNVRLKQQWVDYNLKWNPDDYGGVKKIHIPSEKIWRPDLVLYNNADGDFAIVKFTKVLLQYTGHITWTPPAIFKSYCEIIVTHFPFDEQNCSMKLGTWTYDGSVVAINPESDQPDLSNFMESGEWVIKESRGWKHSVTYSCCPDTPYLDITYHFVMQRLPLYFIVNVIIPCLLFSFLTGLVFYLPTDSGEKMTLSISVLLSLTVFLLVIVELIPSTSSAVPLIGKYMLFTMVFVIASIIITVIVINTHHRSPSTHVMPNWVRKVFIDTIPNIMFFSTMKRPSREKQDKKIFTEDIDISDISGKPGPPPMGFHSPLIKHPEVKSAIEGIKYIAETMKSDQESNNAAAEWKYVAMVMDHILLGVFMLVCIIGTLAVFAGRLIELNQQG
T2 sequence (P11230 whole entry partner): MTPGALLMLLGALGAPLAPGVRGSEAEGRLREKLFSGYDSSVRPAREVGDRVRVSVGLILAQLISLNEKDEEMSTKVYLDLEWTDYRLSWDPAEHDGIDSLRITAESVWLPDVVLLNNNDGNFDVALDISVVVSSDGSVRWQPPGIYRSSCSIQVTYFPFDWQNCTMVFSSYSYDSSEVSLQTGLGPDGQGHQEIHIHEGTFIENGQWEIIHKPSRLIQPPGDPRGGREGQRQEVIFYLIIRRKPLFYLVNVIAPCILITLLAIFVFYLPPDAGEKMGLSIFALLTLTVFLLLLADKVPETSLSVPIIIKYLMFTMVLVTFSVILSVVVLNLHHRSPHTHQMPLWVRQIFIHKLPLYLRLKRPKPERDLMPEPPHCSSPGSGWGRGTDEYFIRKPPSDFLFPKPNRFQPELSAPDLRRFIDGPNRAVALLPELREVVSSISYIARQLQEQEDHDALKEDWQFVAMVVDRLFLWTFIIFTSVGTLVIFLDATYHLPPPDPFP
T2 sequence (Q07001 whole entry partner): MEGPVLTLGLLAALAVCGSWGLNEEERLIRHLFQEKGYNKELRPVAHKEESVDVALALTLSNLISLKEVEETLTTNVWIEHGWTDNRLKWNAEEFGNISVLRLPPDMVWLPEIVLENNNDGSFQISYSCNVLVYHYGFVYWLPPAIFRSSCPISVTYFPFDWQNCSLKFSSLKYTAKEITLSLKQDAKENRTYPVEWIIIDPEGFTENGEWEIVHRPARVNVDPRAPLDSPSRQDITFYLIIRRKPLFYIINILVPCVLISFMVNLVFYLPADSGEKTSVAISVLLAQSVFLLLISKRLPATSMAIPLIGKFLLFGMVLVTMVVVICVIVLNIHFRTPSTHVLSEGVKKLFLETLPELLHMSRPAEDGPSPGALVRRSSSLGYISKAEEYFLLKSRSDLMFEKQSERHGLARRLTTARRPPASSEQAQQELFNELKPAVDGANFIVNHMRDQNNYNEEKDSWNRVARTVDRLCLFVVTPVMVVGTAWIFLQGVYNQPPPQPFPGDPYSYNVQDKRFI
T15 sequence (P25021 whole entry): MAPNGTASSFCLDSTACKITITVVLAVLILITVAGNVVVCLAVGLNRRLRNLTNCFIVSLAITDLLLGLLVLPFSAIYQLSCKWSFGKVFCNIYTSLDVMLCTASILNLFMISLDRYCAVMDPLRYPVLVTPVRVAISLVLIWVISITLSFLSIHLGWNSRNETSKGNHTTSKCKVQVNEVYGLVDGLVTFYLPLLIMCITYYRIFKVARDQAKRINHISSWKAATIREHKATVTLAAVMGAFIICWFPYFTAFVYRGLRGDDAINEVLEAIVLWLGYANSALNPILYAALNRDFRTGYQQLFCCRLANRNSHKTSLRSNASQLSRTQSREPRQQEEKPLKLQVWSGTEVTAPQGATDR

A word on the inhibition: it is the drop in the measured response relative to a control, in per cent. Regarding `COCCN(CC1CCCN(Cc2ccccc2)C1)S(=O)(=O)c1ccc2ccccc2c1` (racemic) [compound 4, (±)N-((1-benzylpiperidin-3-yl)methyl)-N-(2-methoxyethyl)naphthalene-2-sulfonamide], the inhibition at 10 µM at adrenergic receptor α1A worked out at 71.7%; at N muscle-type (h) it was 23%; on GR (h), 4.7%; at D2L(h), 26.6%; on H1(h), 29%; at V1a(h), 33.8%. The inhibition at 10 µM on 5-HT2B(h) was 88.4%; at 5-HT5a(h) it was 42.5%; on A2A(h), 20.5%; at CB1(h), -44.4%; on M1(h), 53.1%; at β2(h), 10.5%. Moreover, the inhibition at 10 µM on D2S(h) came out at 55.6%; on δ (DOP) (h), 32.8%; at H2(h), 27%; on M3(h), 35.2%; on M5(h), 17.6%; on D3(h), 38.4%. Besides, the inhibition at 10 µM was 7% on PDE3A (h); -12.8% in [1]; 33% in experiment [2]; -6.6% in experiment [3]; -0.2% in experiment [4].
